Source: patent US12491182B2, “Polymorphs of triazole antifungal compound PC945” (Pulmocide Limited, priority 2019, dated 2025)

Assays:
Assay type in all cases: physicochemical
[1] = Fate of Form 2 slurried in single solvents, acetone, water and acetone/water mixtures, XRPD
Procedure: In order to determine the influence of water in determining the output from such conditioning experiments, the behaviour of the Form 2 polymorph was examined in nominally dry organic media and also in monophasic, aqueous mixtures with water miscible solvents.
The same result was also obtained when the conditioning medium was either neat acetone (Table 9, Entries 1 and 6) or water alone (Table 9, Entries 5 and 10). However, in acetone-water mixtures at 50° C. over 24 hr there was clear evidence that in two instances Form 2 had been transformed into Form 1 (Table 9, Entries 7 and 9).

[2] = Fate of Form 2 slurried in MEK/water mixtures, XRPD; settings: MEK, 25 °C, 24 hours
Procedure: (Table 12). It was observed that Form 2 integrity was maintained for at least 24 hours at the lower temperature until the water content exceeded 6%, despite an increase in solubility of Compound I from 19 to 30 mg/ml (data not shown).

[3] = as above; settings: MEK, 50 °C, 24 hour time point

Q: With `Cc1cc(N2CCN(c3ccc(C(=O)Nc4ccc(F)cc4)cc3)CC2)ccc1OC[C@@H]1CO[C@@](Cn2cncn2)(c2ccc(F)cc2F)C1` [Form 2, 4-(4-(4-(((3R,5R)-5-((1H-1,2,4-triazol-1-yl)methyl)-5-(2,4-difluorophenyl)tetrahydrofuran-3-yl)methoxy)-3-methylphenyl)piperazin-1-yl)-N-(4-fluorophenyl)benzamide] as the compound, how does the “Polymorphic Form by XRPD” value ([1]; acetone, water 0 vol %, 25 °C, 1 and 4 hr) read?
A: Its value is 2.

Q: What about the “Polymorphic Form by XRPD” value ([1]; acetone, water 0 vol %, 25 °C, 24 hr) of the same compound?
A: The value was 2.

Q: What about the “Polymorphic Form by XRPD” value ([1]; acetone, water 0 vol %, 50 °C, 1 and 4 hr) of the same compound?
A: Its value is 2.

Q: And the “Polymorphic Form by XRPD” value ([1]; acetone, water 0 vol %, 50 °C, 24 hr)?
A: Its value is 2.

Q: And the “Polymorphic Form by XRPD” value ([1]; acetone/water, water 10 vol %, 25 °C, 1 and 4 hr)?
A: Its value is 2.

Q: And the “Polymorphic Form by XRPD” value ([1]; acetone/water, water 10 vol %, 25 °C, 24 hr)?
A: Its value is 2.

Q: What about the “Polymorphic Form by XRPD” value ([1]; acetone/water, water 10 vol %, 50 °C, 1 and 4 hr) of the same compound?
A: The value was 2.

Q: What about the “Polymorphic Form by XRPD” value ([1]; acetone/water, water 10 vol %, 50 °C, 24 hr) of the same compound?
A: The value was 1.

Q: What about the “Polymorphic Form by XRPD” value ([1]; acetone/water, water 20 vol %, 25 °C, 1 and 4 hr) of the same compound?
A: Its value is 2.

Q: And the “Polymorphic Form by XRPD” value ([1]; acetone/water, water 20 vol %, 25 °C, 24 hr)?
A: The value was 2.

Q: And the “Polymorphic Form by XRPD” value ([1]; acetone/water, water 20 vol %, 50 °C, 1 and 4 hr)?
A: The value was 2.

Q: And the “Polymorphic Form by XRPD” value ([1]; acetone/water, water 20 vol %, 50 °C, 24 hr)?
A: Its value is 2.

Q: And the “Polymorphic Form by XRPD” value ([1]; acetone/water, water 40 vol %, 25 °C, 1 and 4 hr)?
A: Its value is 2.

Q: What about the “Polymorphic Form by XRPD” value ([1]; acetone/water, water 40 vol %, 25 °C, 24 hr) of the same compound?
A: The value was 2.

Q: What about the “Polymorphic Form by XRPD” value ([1]; acetone/water, water 40 vol %, 50 °C, 1 and 4 hr) of the same compound?
A: Its value is 2.

Q: What about the “Polymorphic Form by XRPD” value ([1]; acetone/water, water 40 vol %, 50 °C, 24 hr) of the same compound?
A: Its value is 1.

Q: What about the “change in crystal structure on suspension in sole solvent” value ([1]; heptane, TBME, toluene or cyclohexane as sole solvent, 25 or 50 °C, 24 hr) of the same compound?
A: Its value is “no perceptible change in crystal structure”.

Q: And the “Polymorphic Form by XRPD” value ([1]; water 100 vol %, 25 °C, 1 and 4 hr)?
A: The value was 2.

Q: And the “Polymorphic Form by XRPD” value ([1]; water 100 vol %, 25 °C, 24 hr)?
A: The value was 2.

Q: What about the “Polymorphic Form by XRPD” value ([1]; water 100 vol %, 50 °C, 1 and 4 hr) of the same compound?
A: The value was 2.

Q: What about the “Polymorphic Form by XRPD” value ([1]; water 100 vol %, 50 °C, 24 hr) of the same compound?
A: Its value is 2.

Q: And the “Polymorphic Form by XRPD” value ([2]; water 1 % vol)?
A: Its value is 2.

Q: What about the “Polymorphic Form by XRPD” value ([2]; water 2 % vol) of the same compound?
A: Its value is 2.

Q: What about the “Polymorphic Form by XRPD” value ([2]; water 4 % vol) of the same compound?
A: The value was 2.

Q: And the “Polymorphic Form by XRPD” value ([2]; water 6 % vol)?
A: The value was 2.

Q: What about the “Polymorphic Form by XRPD” value ([2]; water 8 % vol) of the same compound?
A: Its value is 1.

Q: What about the “Polymorphic Form by XRPD” value ([3]; water 1 % vol) of the same compound?
A: Its value is 2.

Q: What about the “Polymorphic Form by XRPD” value ([3]; water 2 % vol) of the same compound?
A: The value was 2.

Q: And the “Polymorphic Form by XRPD” value ([3]; water 4 % vol)?
A: Its value is 1.

Q: And the “Polymorphic Form by XRPD” value ([3]; water 6 % vol)?
A: Its value is 1.

Q: And the “Polymorphic Form by XRPD” value ([3]; water 8 % vol)?
A: The value was 1.
